Measurements published in patent US12077503B2, “Substituted cyclic amides and their use as herbicides” (FMC CORPORATION, priority 2015, dated 2024).

What was measured:
Type in all cases: in vivo
[1] = tested on: barnyardgrass (Echinochloa crus-galli); assay: Test A postemergence
How it was run: (§1)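 Each rating is a visual injury score from 0 to 100 given about 10 d after treatment, judged against untreated controls kept alongside in the greenhouse. In loam soil–sand blend, seeds got a preemergence directed soil spray, while postemergence plants were 2 to 10 cm tall at spraying.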

[2] = tested on: giant foxtail (Setaria faberii); assay: Test A postemergence
How it was run: as §1

[3] = tested on: wheat (Triticum aestivum); assay: Test A postemergence
How it was run: as §1

[4] = tested on: crabgrass, large (Digitaria sanguinalis); assay: Test A postemergence
How it was run: as §1

[5] = tested on: morningglory (Ipomoea spp.); assay: Test A postemergence
How it was run: as §1

[6] = tested on: pigweed (Amaranthus retroflexus); assay: Test A postemergence
How it was run: as §1

corn (Zea mays) [7] = assay: Test A postemergence
How it was run: as §1

[8] = tested on: velvetleaf (Abutilon theophrasti); assay: Test A postemergence
How it was run: as §1

[9] = tested on: barnyardgrass (Echinochloa crus-galli); assay: Test A preemergence; conditions: for Plant response rating, Barnyardgrass: 125 g ai/ha, preemergence, 0 to 100 scale (0 no effect, 100 complete control); for Barnyardgrass plant response rating (0 to 100 scale): Preemergence, 500 g ai/ha, 0 is no effect, 100 is complete control
How it was run: as §1

[10] = tested on: giant foxtail (Setaria faberii); assay: Test A preemergence; conditions: for Plant response rating, Foxtail, Giant: 125 g ai/ha, preemergence, 0 to 100 scale (0 no effect, 100 complete control); for Foxtail, Giant plant response rating (0 to 100 scale): Preemergence, 500 g ai/ha, 0 is no effect, 100 is complete control
How it was run: as §1

[11] = tested on: wheat (Triticum aestivum); assay: Test A preemergence; conditions: for Plant response rating, Wheat: 125 g ai/ha, preemergence, 0 to 100 scale (0 no effect, 100 complete control); for Wheat plant response rating (0 to 100 scale): Preemergence, 500 g ai/ha, 0 is no effect, 100 is complete control
How it was run: as §1

[12] = tested on: crabgrass, large (Digitaria sanguinalis); assay: Test A preemergence; conditions: for Plant response rating, Crabgrass, Large: 125 g ai/ha, preemergence, 0 to 100 scale (0 no effect, 100 complete control); for Crabgrass, Large plant response rating (0 to 100 scale): Preemergence, 500 g ai/ha, 0 is no effect, 100 is complete control
How it was run: as §1

[13] = tested on: morningglory (Ipomoea spp.); assay: Test A preemergence; conditions: for Plant response rating, Morningglory: 125 g ai/ha, preemergence, 0 to 100 scale (0 no effect, 100 complete control); for Morningglory plant response rating (0 to 100 scale): Preemergence, 500 g ai/ha, 0 is no effect, 100 is complete control
How it was run: as §1

[14] = tested on: pigweed (Amaranthus retroflexus); assay: Test A preemergence; conditions: for Plant response rating, Pigweed: 125 g ai/ha, preemergence, 0 to 100 scale (0 no effect, 100 complete control); for Pigweed plant response rating (0 to 100 scale): Preemergence, 500 g ai/ha, 0 is no effect, 100 is complete control
corn (Zea mays) [15] = assay: Test A preemergence; conditions: for Plant response rating, Corn: 125 g ai/ha, preemergence, 0 to 100 scale (0 no effect, 100 complete control); for Corn plant response rating (0 to 100 scale): Preemergence, 500 g ai/ha, 0 is no effect, 100 is complete control
How it was run: as §1

[16] = tested on: velvetleaf (Abutilon theophrasti); assay: Test A preemergence; conditions: for Plant response rating, Velvetleaf: 125 g ai/ha, preemergence, 0 to 100 scale (0 no effect, 100 complete control); for Velvetleaf plant response rating (0 to 100 scale): Preemergence, 500 g ai/ha, 0 is no effect, 100 is complete control
How it was run: as §1

[17] = tested on: sedge, umbrella (small-flower umbrella sedge, Cyperus difformis); assay: Test B flooded paddy test; conditions: Flood, 0 to 100 scale where 0 is no effect and 100 is complete control, 13 to 15 d
How it was run: (§2)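 Rating scale 0–100 (visual, vs untreated controls) after a 13–15 d greenhouse period; application to the flood layer, 3 cm above soil and maintained; plants at 2-leaf stage when treated.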

[18] = tested on: barnyardgrass (Echinochloa crus-galli); assay: Test B flooded paddy test; conditions: Flood, 0 to 100 scale where 0 is no effect and 100 is complete control, 13 to 15 d
How it was run: as §2

rice (Oryra sativa) = assay: Test B flooded paddy test; conditions: Flood, 0 to 100 scale where 0 is no effect and 100 is complete control, 13 to 15 d
How it was run: as §2

[19] = tested on: ducksalad (Heteranthera limosa); assay: Test B flooded paddy test; conditions: Flood, 0 to 100 scale where 0 is no effect and 100 is complete control, 13 to 15 d
How it was run: as §2

[20] = 500 g ai/ha, postemergence, 0 to 100 scale, 0 no effect, 100 complete control
[21] = Postemergence, 125 g ai/ha, visual injury, 0 to 100 scale (0 no effect, 100 complete control), approx. 10 d

Row | SMILES | Plant response rating, Barnyardgrass [1, 20] | Plant response rating, Barnyardgrass [1, 21] | Plant response rating, Foxtail, Giant [2, 20] | Plant response rating, Foxtail, Giant [2, 21] | Plant response rating, Wheat [3, 20] | Plant response rating, Wheat [3, 21] | Plant response rating, Crabgrass, Large [4, 20] | Plant response rating, Crabgrass, Large [4, 21] | Plant response rating, Morningglory [5, 20] | Plant response rating, Morningglory [5, 21] | Plant response rating, Pigweed [6, 20] | Plant response rating, Pigweed [6, 21] | Plant response rating, Corn (corn (Zea mays) [7]; [20]) | Plant response rating, Corn (corn (Zea mays) [7]; [21]) | Plant response rating, Velvetleaf [8, 20] | Plant response rating, Velvetleaf [8, 21] | Plant response rating, Barnyardgrass [9] | Barnyardgrass plant response rating (0 to 100 scale) [9] | Plant response rating, Foxtail, Giant [10] | Foxtail, Giant plant response rating (0 to 100 scale) [10] | also measured
1 | Cn1nccc1NC(=O)C1C(=O)NCC1c1ccc(F)c(F)c1 (racemic) [Compound 362] | 0 | 0 | 0 | 0 | 0 | 0 | 0 | 0 | 0 | 0 | 0 | 0 | 0 | 0 | 0 | 0 | 0 | 0 | 0 | 0 | Plant response rating, Wheat [11]: 0; Wheat plant response rating (0 to 100 scale) [11]: 0; Plant response rating, Crabgrass, Large [12]: 0; Crabgrass, Large plant response rating (0 to 100 scale) [12]: 0; Plant response rating, Morningglory [13]: 0; Morningglory plant response rating (0 to 100 scale) [13]: 0; Plant response rating, Pigweed [14]: 0; Pigweed plant response rating (0 to 100 scale) [14]: 0; Plant response rating, Corn (corn (Zea mays) [15]): 0; Corn plant response rating (0 to 100 scale) (corn (Zea mays) [15]): 0; Plant response rating, Velvetleaf [16]: 0; Velvetleaf plant response rating (0 to 100 scale) [16]: 0; Plant response rating, Sedge, Umbrella ([17]; 250 g ai/ha): 0; Plant response rating, Barnyardgrass ([18]; 250 g ai/ha): 0; Plant response rating, Rice (rice (Oryra sativa); 250 g ai/ha): 0; Plant response rating, Ducksalad ([19]; 250 g ai/ha): 0
2 | O=C1NCC(c2ccc(-c3ccccc3)cc2)C1C(=O)Nc1cccc(F)c1F (racemic) [Compound 366] | 0 | 0 | 0 | 0 | 0 | 0 | 0 | 0 | 0 | 0 | 0 | 0 | 0 | 0 | 0 | 0 | 0 | 0 | 0 | 0 | Plant response rating, Wheat [11]: 0; Wheat plant response rating (0 to 100 scale) [11]: 0; Plant response rating, Crabgrass, Large [12]: 0; Crabgrass, Large plant response rating (0 to 100 scale) [12]: 0; Plant response rating, Morningglory [13]: 0; Morningglory plant response rating (0 to 100 scale) [13]: 0; Plant response rating, Pigweed [14]: 0; Pigweed plant response rating (0 to 100 scale) [14]: 0; Plant response rating, Corn (corn (Zea mays) [15]): 0; Corn plant response rating (0 to 100 scale) (corn (Zea mays) [15]): 0; Plant response rating, Velvetleaf [16]: 0; Velvetleaf plant response rating (0 to 100 scale) [16]: 0; Plant response rating, Sedge, Umbrella ([17]; 1000 g ai/ha): 0; Plant response rating, Barnyardgrass ([18]; 1000 g ai/ha): 0; Plant response rating, Rice (rice (Oryra sativa); 1000 g ai/ha): 0; Plant response rating, Ducksalad ([19]; 1000 g ai/ha): 0
3 | Nc1cccc(C2CNC(=O)C2C(=O)Nc2cccc(F)c2F)c1 (stereo not drawn) [Compound 354] | 0 | 0 | 0 | 0 | 0 | 0 | 0 | 0 | 0 | 0 | 0 | 0 | 0 | 0 | 0 | 0 | 0 | 0 | 0 | 0 | Plant response rating, Wheat [11]: 0; Wheat plant response rating (0 to 100 scale) [11]: 0; Plant response rating, Crabgrass, Large [12]: 0; Crabgrass, Large plant response rating (0 to 100 scale) [12]: 0; Plant response rating, Morningglory [13]: 0; Morningglory plant response rating (0 to 100 scale) [13]: 0; Plant response rating, Pigweed [14]: 0; Pigweed plant response rating (0 to 100 scale) [14]: 0; Plant response rating, Corn (corn (Zea mays) [15]): 0; Corn plant response rating (0 to 100 scale) (corn (Zea mays) [15]): 0; Plant response rating, Velvetleaf [16]: 0; Velvetleaf plant response rating (0 to 100 scale) [16]: 0; Plant response rating, Sedge, Umbrella ([17]; 250 g ai/ha): 20; Plant response rating, Barnyardgrass ([18]; 250 g ai/ha): 0; Plant response rating, Rice (rice (Oryra sativa); 250 g ai/ha): 20; Plant response rating, Ducksalad ([19]; 250 g ai/ha): 0
